Source: ChEMBL document CHEMBL3638448, “8-[3-amino-piperidin-1-yl]-xanthines, their preparation and their use as pharmaceutical compositions” (2014)
pIC50: −log10 of the molar value.

Molecular target: Dipeptidyl peptidase 4 (Homo sapiens, UniProt P27487)
Experiment: Biological Assay: 50 μl of substrate solution (AFC; AFC is amido-4-trifluoromethylcoumarin), final concentration 100 μM, was placed in black microtitre plates. 20 μl of assay buffer (final concentrations 50 mM Tris HCl pH 7.8, 50 mM NaCl, 1% DMSO) was pipetted therein. The reaction was started by the addition of 30 μl of solubilized Caco-2 protein (final concentration 0.14 μg of protein per well). The test substances under investigation were typically added prediluted to 20 μl, while the volume of assay buffer was then reduced accordingly. The reaction was carried out at ambient temperature, the incubation period was 60 minutes. Then the fluorescence was measured in a Victor 1420 Multilabel Counter, with the excitation wavelength at 405 nm and the emission wavelength at 535 nm.

Sequence of Dipeptidyl peptidase 4 (P27487 whole entry): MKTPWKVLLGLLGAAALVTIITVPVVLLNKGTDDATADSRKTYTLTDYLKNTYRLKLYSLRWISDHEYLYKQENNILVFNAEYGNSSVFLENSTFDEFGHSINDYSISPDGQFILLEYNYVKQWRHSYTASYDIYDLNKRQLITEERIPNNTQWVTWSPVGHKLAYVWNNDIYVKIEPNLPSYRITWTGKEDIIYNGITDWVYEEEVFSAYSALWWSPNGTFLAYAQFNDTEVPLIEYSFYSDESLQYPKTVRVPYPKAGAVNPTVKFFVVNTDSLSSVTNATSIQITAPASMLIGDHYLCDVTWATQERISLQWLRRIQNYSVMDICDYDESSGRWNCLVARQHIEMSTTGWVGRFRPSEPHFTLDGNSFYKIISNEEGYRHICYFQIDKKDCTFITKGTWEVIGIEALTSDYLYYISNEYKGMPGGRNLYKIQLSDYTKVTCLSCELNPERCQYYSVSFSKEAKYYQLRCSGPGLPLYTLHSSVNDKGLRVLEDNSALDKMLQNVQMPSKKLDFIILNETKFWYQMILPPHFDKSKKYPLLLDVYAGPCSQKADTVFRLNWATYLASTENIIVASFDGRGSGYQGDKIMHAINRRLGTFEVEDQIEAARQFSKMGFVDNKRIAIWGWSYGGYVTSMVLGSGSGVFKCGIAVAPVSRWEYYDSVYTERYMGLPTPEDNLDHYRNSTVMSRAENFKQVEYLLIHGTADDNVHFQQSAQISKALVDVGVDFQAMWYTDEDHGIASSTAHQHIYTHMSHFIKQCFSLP

pIC50	SMILES
8.70	CC#CCn1c(N2CCC[C@@H](NC(=O)OC(C)(C)C)C2)nc2c1c(=O)n(Cc1nccc(-c3ccccc3)n1)c(=O)n2C
8.70	CC#CCn1c(N2CCC[C@@H](NC(=O)OC(C)(C)C)C2)nc2c1c(=O)n(Cc1ccc3nc(C)c(C)nc3c1)c(=O)n2C
8.22	CC#CCn1c(N2CCCC(NC(=O)OC(C)(C)C)C2)nc2c1c(=O)n(Cc1nc(NCc3ccccc3)c3ccccc3n1)c(=O)n2C (stereo not given)
8.30	CC#CCn1c(N2CCC[C@@H](NC(=O)OC(C)(C)C)C2)nc2c1c(=O)n(CC(=O)c1cccc(OC3CC3)c1)c(=O)n2C
8.22	CC#CCn1c(N2CCC[C@@H](NC(=O)OC(C)(C)C)C2)nc2c1c(=O)n(Cc1cc(C#N)cc3ccccc13)c(=O)n2C
8.52	CC#CCn1c(N2CCC[C@@H](NC(=O)OC(C)(C)C)C2)nc2c1c(=O)n(CC(=O)c1ccccc1[N+](=O)[O-])c(=O)n2C
8.70	CC#CCn1c(N2CCC[C@@H](NC(=O)OC(C)(C)C)C2)nc2c1c(=O)n(Cc1cc(C#N)c3ccccc3n1)c(=O)n2C
8.05	CC#CCn1c(N2CCC[C@@H](NC(=O)OC(C)(C)C)C2)nc2c1c(=O)n(Cc1nc(-c3ccccc3)nc3ccccc13)c(=O)n2C
8.70	CC#CCn1c(N2CCC[C@@H](NC(=O)OC(C)(C)C)C2)nc2c1c(=O)n(CC(=O)c1ccccc1Br)c(=O)n2C
8.70	CC#CCn1c(N2CCC[C@@H](NC(=O)OC(C)(C)C)C2)nc2c1c(=O)n(Cc1nc3ccccc3c(C)c1C#N)c(=O)n2C
